Test results reported in ChEMBL document CHEMBL1122188, “A quantitative structure-activity relationship study of the inhibitory action of a series of enkephalin-like peptides in the guinea pig ileum and mouse vas deferens bioassays” (J Med Chem, 1982).
Non-standard residues stand in square brackets, D forms with d. Residues, ends and D or L forms follow the SMILES beside them. Cha = N[C@@H](CC1CCCCC1)C(=O)O

Legend:
Conditions in all cases: read-out: Log 1/IC50 (converted)
Mus musculus = organism: Mus musculus; assay: (§1) Inhibitory activity contractions of electrically stimulated mouse vas deferens was determined; type: functional, organism-based
Cavia porcellus = organism: Cavia porcellus; assay: Inhibitory activity for contractions of electrically stimulated guinea pig ileum was determined; type: functional, organism-based
[1] = molecular target: Delta-type opioid receptor (Mus musculus, UniProt P32300); assay: as §1; type: functional, tissue-based
Delta-type opioid receptor, sequence (P32300 whole entry): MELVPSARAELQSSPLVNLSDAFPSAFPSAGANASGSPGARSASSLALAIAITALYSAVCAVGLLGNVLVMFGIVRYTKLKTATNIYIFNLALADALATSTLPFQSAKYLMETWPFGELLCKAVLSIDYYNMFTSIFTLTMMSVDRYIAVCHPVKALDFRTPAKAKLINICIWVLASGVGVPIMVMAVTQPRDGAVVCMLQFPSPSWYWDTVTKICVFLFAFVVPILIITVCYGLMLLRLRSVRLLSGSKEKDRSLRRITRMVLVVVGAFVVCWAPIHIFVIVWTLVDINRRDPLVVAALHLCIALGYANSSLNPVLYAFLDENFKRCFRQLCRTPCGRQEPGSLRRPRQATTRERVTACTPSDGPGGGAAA

Row | Compound | IC50 (Mus musculus) | IC50 (Cavia porcellus) | IC50 [1]
1 | CC(C)C[C@H](NC(=O)[C@H](Cc1ccccc1)NC(=O)CNC(=O)[C@H](C)NC(=O)[C@@H](N)Cc1ccc(O)cc1)C(N)=O | 9.55 nM | 11.2 nM | –
2 | CSCC[C@H](NC(=O)[C@H](Cc1ccccc1)NC(=O)CNC(=O)[C@H](C)NC(=O)[C@@H](N)Cc1ccc(O)cc1)C(N)=O | – | 11.5 nM | –
3 | C[C@H](NC(=O)[C@@H](N)Cc1ccc(O)cc1)C(=O)NCC(=O)N[C@@H](Cc1ccc([N+](=O)[O-])cc1)C(=O)N[C@@H](CCC(C)(C)C)C(N)=O | – | 1.91 nM | –
4 | COc1ccc(C[C@H](N)C(=O)N[C@@H](C)C(=O)NCC(=O)N[C@@H](Cc2ccc([N+](=O)[O-])cc2)C(=O)N[C@@H](CCSC)C(N)=O)cc1 | – | 2.29 nM | 3.16 nM
5 | C[C@H](NC(=O)[C@@H](N)Cc1ccc(O)cc1)C(=O)NCC(=O)N[C@@H](Cc1ccc([N+](=O)[O-])cc1)C(=O)N[C@@H](CC12CC3CC(CC(C3)C1)C2)C(N)=O | – | 3.8 nM | 20.4 nM
6 | CC(C)C[C@H](NC(=O)[C@H](Cc1ccc([N+](=O)[O-])cc1)NC(=O)CNC(=O)[C@H](C)NC(=O)[C@@H](N)Cc1ccc(O)cc1)C(N)=O | – | 3.16 nM | –
7 | COc1ccc(C[C@H](N)C(=O)N[C@@H](C)C(=O)NCC(=O)N[C@@H](CC2CCCCC2)C(=O)N[C@@H](CCSC)C(N)=O)cc1 (H-Y(Me)AG[Cha]M-NH2) | – | 72.4 nM | –
8 | C[C@H](NC(=O)[C@@H](N)Cc1ccc(O)cc1)C(=O)NCC(=O)N[C@@H](Cc1ccccc1)C(=O)N[C@H](C(N)=O)C(C)(C)C (HELM PEPTIDE1{Y.A.G.F.[CC(C)(C)[C@H](N[*:1])C(=O)[*:2]].[am]}$$$$V2.0) | – | 11.7 nM | 9.77 nM
9 | C[C@H](NC(=O)[C@@H](N)Cc1ccc(O)cc1)C(=O)NCC(=O)N[C@@H](Cc1ccccc1)C(=O)N[C@@H](CC12CC3CC(CC(C3)C1)C2)C(N)=O (HELM PEPTIDE1{Y.A.G.F.[O=C([C@H](CC12CC3CC(CC(C3)C1)C2)N[*:1])[*:2]].[am]}$$$$V2.0) | – | 6.03 nM | 50.1 nM
10 | CC(C)C[C@H](NC(=O)[C@H](CC1CCCCC1)NC(=O)CNC(=O)[C@H](C)NC(=O)[C@@H](N)Cc1ccc(O)cc1)C(N)=O (HELM PEPTIDE1{Y.A.G.[Cha].L.[am]}$$$$V2.0) | – | 91.2 nM | –
11 | CC(C)C[C@H](NC(=O)[C@H](CC12CC3CC(CC(C3)C1)C2)NC(=O)CNC(=O)[C@H](C)NC(=O)[C@@H](N)Cc1ccc(O)cc1)C(N)=O (HELM PEPTIDE1{Y.A.G.[O=C([C@H](CC12CC3CC(CC(C3)C1)C2)N[*:1])[*:2]].L.[am]}$$$$V2.0) | – | 1000 nM | 2950 nM
